Measurements published in patent US11974551B2, “L-serine compositions, methods and uses for treating neurodegenerative diseases and disorders” (priority 2011, dated 2024).
“Also recorded” adds a separate entry of the source.

Tests used:
[1] = system: zebrafish; assay: Zebrafish swimming performance (critical swimming speed, time to fail); type: in vivo, zebrafish (Dario rerio); settings: single yolk injection of BMAA, fish reared 3 months, compared to control fish, p<0.001
Description: (§1) BMAA was directly injected through the chorion into the yolk, allowing it to directly compete with L-serine for incorporation into newly synthesized proteins in the developing fish. BMAA (100 mg/ml in water) or water were delivered by an automated Picospritzer pump set to deliver 5 nL per injection into the yolk ([…]) of zebrafish immediately after being fertilized. Fish were left to develop for 30 hours in standard conditions.
(§2) Surviving fish were reared in an aquarium equipped with biological filtration and temp control set at 28° C. for 3 months. BMAA-treated and control fish from the same parents were reared in the same tanks, then separated based on fluorescent tag prior to swimming assessment. After 3 months all healthy adult fish with no deformations or abnormalities were examined. Critical swimming speed was determined, defined as the maximum swimming velocity that can be sustained for a set period in a water tunnel. Water was pumped from a reservoir (EcoTech Marine MP10 VorTech® Propeller Pump with EcoSmart Driver) through 50 mm diameter tubing. […] The difference in total motor neuron length was quantitated by measuring the first ten motor neuron projections marked before the end of the yolk extension (Paquet D. et al., J. Clin. Invest. 119:1382 (2009)). […] Data was collated in GraphPad Prism (version 6 for OSX) and statistical significance calculated using a Student's T-test. […]

[2] = system: Drosophila fruit flies; assay: Fruit fly feeding: mortality after three days; type: in vivo, Drosophila melanogaster; settings: media with 25 mM BMAA, after three days
Description: Preliminary studies show the ability of L-Serine to prevent misincorporation of BMAA into proteins. In a series of feeding experiments, Drosophila fruit flies were fed four different types of media: 1) standard fruit fly media with 0 mM BMAA (control), 2) media enriched with 25 mM L-Serine, 3) media with 25 mM BMAA added, and 4) media with both 25 mM BMAA and 25 mM L-Serine added for three days of feeding. Misincorporation of BMAA into proteins was then analyzed using triple quadrupole LC/MS/MS and Orbital Trap LC/MS/MS.
Equally interesting is the analysis of the protective value of L-Serine on Drosophila dosed with BMAA. Fruit flies fed with BMAA enriched media (third set of blocks) suffered a 40% mortality after three days, while flies fed with Serine plus BMAA (fourth set of blocks) had no mortality (FIG. 8). These flies were rescued by L-Serine.

[3] = system: SH-SY5Y cells; assay: Lactate dehydrogenase (LDH) release assay; type: cell-based, human; settings: BMAA-treated cells
Description: (§3) Lactate dehydrogenase release from cells was determined as described previously (Tang, et al., Phytother Res 25, 417-423 (2010)).

[4] = system: MRC-5 cells; assay: Lactate dehydrogenase (LDH) release assay; type: cell-based, human; settings: BMAA-treated cells
Description: as §3

[5] = system: zebrafish; assay: Zebrafish motor neuron development (fluorescent microscopy); type: in vivo, zebrafish (Dario rerio); settings: eggs injected with L-BMAA, 30 hours; motor neuron length vs control P<0.0001
Description: as §1, §2

[6] = system: MRC-5 cells; assay: Autofluorescence imaging of cells; type: cell-based, human; settings: BMAA 300 μM, 96 hours
Description: MRC-5 cells were incubated in DMEM supplemented with 300 μM BMAA in the presence or absence of 300 μM L-serine for 96 hours with daily medium changes. Cellular autofluorescence was visualized using an inverted fluorescent microscope (Olympus IX71) as described previously (Dunlop, et al., Biochem J 410, 131-140 (2008)).

[7] = Radio-labeled BMAA brain entry and insertion into neuroproteins; type: in vivo; settings: tritiated and 14C-labeled BMAA, rats
Excerpt: Studies testing to determine if L-Serine blocks the misincorporation of radio-tagged BMAA into rodent brains are undertaken.

[8] = system: SH-SY5Y cells; assay: Annexin V binding (apoptosis) by flow cytometry; type: cell-based, human
Description: Late-stage apoptosis or necrosis was measured by simultaneous staining with propidium iodide and Annexin V using the BD Pharmingen™ Annexin V—FITC apoptosis detection kit and flow cytometry performed as described previously (Dunlop, et al., Biochem J 435, 207-216 (2010)).

[9] = system: MRC-5 cells; assay: Acridine orange/ethidium bromide dual-staining of cells; type: cell-based, human; settings: 500 μM BMAA, 23 hours
Description: MRC-5 cells were incubated in the presence and absence of 500 μM BMAA for 23 hours. After removing the medium, the cells were rinsed once with warm PBS and incubated in a solution of AO/EB then visualized using fluorescent microscopy as described previously (Tang, et al., Phytother Res 25, 417-423 (2010)).

[10] = system: zebrafish; assay: Zebrafish egg yolk injection: survival; type: in vivo, zebrafish (Dario rerio); settings: BMAA 100 mg/ml in water, 5 nL injected into yolk after fertilization, 30 hours; control 91%
Description: as §1

[11] = system: SH-SY5Y cells; assay: Incorporation of 3H-BMAA radiolabel into cell proteins with or without CHX; type: cell-based, human; settings: 3H-BMAA 31.25 nM, CHX 2 μg/ml, 16 hours
Description: (§4) MRC-5 cells, a human lung fibroblast cell line (passage number 14-19), and SH-SY5Y cells, a human neuroblastoma cell-line (passage number 30-32), were maintained in DMEM, or DMEM/Hams F12 respectively containing 10% fetal bovine serum (FBS), 4 mM L-glutamine, 100 U/mL penicillin, and 100 μg/mL streptomycin at 37° C. in a humidified atmosphere of 5% CO2 and 95% air. Human umbilical vein endothelial cells (HUVEC) were harvested enzymatically with type II collagenase (Sigma-Aldrich) under sterile conditions as described by Minter (Minter, et al., Thromb Haemost 67, 718-723 (1992)) and established as primary cell cultures in M199 (Trace Biosciences, Sydney, Australia) containing 20% FBS, 4 mM L-glutamine, 0.5% endothelial cell growth promoter, 100 U/mL penicillin, and 100 μg/mL streptomycin. All media were prepared with endotoxin-free water (Baxter) and filtered with Zetapor filters (Cuno Life Sciences Division). Cells were seeded at 3×10^5 cells per well in 6 well plates and allowed to adhere overnight (16 hours) before treatment.
(§5) To determine if incorporation of radiolabel into proteins was protein synthesis dependent MRC-5, SH-SY5Y and HUVEC cells were incubated with ^3H-BMAA (31.25 nM) with or without CHX 2 μg/ml for 16 hours. The amount of radiolabel present in cell proteins in the CHM-treated cultures was expressed relative to that of control cultures, which was set at 100%. […]

[12] = system: HUVEC; assay: as above; type: cell-based, human; settings: 3H-BMAA 31.25 nM, CHX 2 μg/ml, 16 hours
Description: as §4, §5

[13] = system: MRC-5 cells; assay: Incorporation of 3H-BMAA radiolabel into cell proteins (TCA precipitation, liquid scintillation counting); type: cell-based, human; settings: 16 hours
Description: MRC-5 cells were incubated with ^3H-BMAA (31.25 nM) in HBSS containing 10% FCS. After 2, 4, and 16 hours, cells were washed three times in phosphate buffered saline and lysed by freeze-thawing in Triton X-100. The protein concentration in the lysate was determined using the bicinchoninic acid assay (BCA) (Smith, et al., Anal Biochem 150, 76-85 (1985)) (and radiolabel in the cell lysate quantified by liquid scintillation counting (LSC). Cell proteins were then isolated by trichloroacetic acid (TCA) (5%) precipitation washed three times in TCA (5%) and dissolved in formic acid.
To determine if incorporation of radiolabel into proteins was protein synthesis dependent MRC-5, SH-SY5Y and HUVEC cells were incubated with ^3H-BMAA (31.25 nM) with or without CHX 2 μg/ml for 16 hours. The amount of radiolabel present in cell proteins in the CHM-treated cultures was expressed relative to that of control cultures, which was set at 100%. Parallel cultures of MRC-5 cells were incubated with ^3H-leucine (41 nM) with or without CHX 2 μg/ml under identical culture conditions and processed as before.
To examine the ability of individual amino acids to reduce incorporation or radiolabel into proteins, MRC-5 cells were incubated with ^3H-BMAA (31.25 nM) for 16 hours in the presence of individual amino acids (250 μM) and the radiolabel present in the cell proteins assessed as before. All of the 20 protein amino acids (L-isomers) were examined individually in triplicate cell cultures. […] Incorporation of radiolabel was determined relative to cells incubated in medium containing no serine. MRC-5 cells were then incubated with ^3H-BMAA (31.25 nM) for 16 hours in HBSS alone, HBSS containing all 20 protein amino acids (400 μM) or 19 protein amino acids except L-serine and the amount of radiolabel in cell protein assessed as before.

[14] = system: MRC-5 cells; assay: Protein-bound non-labeled BMAA in hydrolysed cell proteins by triple quadrupole LC/MS/MS; type: cell-based, human; settings: BMAA 250-1000 μM with L-serine 250-1000 μM, or CHX
Description: After incubation with ^3H-BMAA or cold BMAA, cells were washed three times with PBS, lysed by freeze thawing in Triton-X-100 (0.1%) and cell proteins precipitated in TCA (5%). Protein pellets were washed three times with TCA (5%) and hydrolysed in boiling 6 M HCl at 110° C. for 16 hours as previously described (Mondo, et al., Mar Drugs 10, 509-520 (2012)). Protein pellets were freeze-dried and reconstituted in 20 mM HCl. Particulates were removed by centrifugation through […] membranes and the hydrolysate derivatized in AccQ·Tag (Waters Corporation, Australia). Amino acids were separated on a Waters C-18 column using a method and gradient as described previously (Mondo, et al., Mar Drugs 10, 509-520 (2012)). For recovery of radiolabel in hydrolysed samples, fractions were collected manually every minute for 40 minutes, diluted into 5 ml scintillant (Ultima Gold™ scintillant, Perkin Elmer) and disintegrations per minute (DPM) determined by LSC.
To further confirm that BMAA was present in cell proteins and incorporation was inhibited by L-serine, MRC-5 cells were incubated with a range of concentrations of BMAA (250-1000 μM) or BMAA with L-serine (250-1000 μM) and hydrolysed cell proteins were analyzed by tandem mass spectroscopy on a triple quadrupole LC/MS/MS. […]

[15] = mice, single injection (Karlsson et al. 2009); cited from earlier work

CNC[C@H](N)C(=O)O [BMAA, β-methylamino-L-alanine]
swimming performance, time to fail [1]: significant impairment; also recorded: impairs zebrafish swimming performance | mortality [2]: 40% | necrosis, LDH release [3]: no significant changes | necrosis, LDH release [4]: no significant changes | motor neuron development [5]: truncated neurons | formation of autofluorescent bodies [6]: autofluorescent bodies were evident; also recorded: Autofluorescence was observed | crossing of the blood-brain barrier [7]: rapidly cross the blood-brain barrier | insertion into neuroproteins [7]: inserted into neuroproteins | Annexin V staining (apoptosis) ([8]; 500 μM BMAA alone): increased staining; also recorded: significant increase | morphological changes and pale cells indicative of apoptosis [9]: increased number; also recorded: morphological changes | zebrafish viability (survival) [10]: 74%

C[C@@H]1C[C@@H]([C@H](O)CC2CC(=O)NC(=O)C2)C(=O)[C@@H](C)C1 [CHX, cycloheximide]
effect on protein association of 3H-BMAA [11]: inhibited | effect on protein association of 3H-BMAA [12]: inhibited | effect on amount of 3H-BMAA radiolabel in the protein fraction ([13]; 3H-BMAA 31.25 nM, CHX 2 μg/ml, relative to no CHX): significantly reduced; also recorded: inhibition of incorporation of radiolabel into cell protein | inhibition of incorporation of 3H-leucine into proteins, compared with 3H-BMAA ([13]; 3H-leucine 41 nM, CHX 2 μg/ml): to the same extent | effect on BMAA-induced Annexin V binding / apoptosis ([8]; 500 μM BMAA, co-incubation with CHX 2 μg/mL or L-serine 50 μM): abrogated; also recorded: significantly reduced | effect on incorporation of non-labeled BMAA into cell proteins [14]: inhibited

N[C@H](CO)C(=O)O [D-Serine, D-serine]
effect on incorporation of 3H-BMAA into protein ([13]; 3H-BMAA 31.25 nM, 250 μM D-serine): did not prevent incorporation

CNC[C@H](N)C(=O)O [^3H-BMAA]
tissue distribution pattern [15]: a distribution pattern similar to that of a protein-forming amino acid
